Measured values published in patent publication US10106523B2, “Amide compound” (ASTELLAS PHARMA INC., priority 2014, dated 2018).

Molecular target: T1, rat EP2 receptor (Rattus norvegicus, UniProt Q62928)
T1 construct: expressed in transfected cells
Experiment: Selectivity test: antagonistic action on rat EP2 receptor (cAMP amount, CHO-K1 cells)
Type: cell-based
Conditions: PGE2 100 nmol/L, CHO-K1 cells stably expressing rat EP2; read-out: Concentration up to which no inhibitory action of 50% or more on the increase in intracellular cAMP amount due to PGE2 through the rat EP2 receptor
Protocol: Test Example 9: Evaluation Test of Receptor Antagonistic Action on Rat EP1/EP2/EP3 Receptor (Selectivity Test)
The antagonistic action of Compound A on other subtypes ([…], EP2, and EP3) of the rat-derived PGE2 receptor was evaluated. For EP1 and EP3, the intracellular Ca^2+ amount was used as an indicator, and for EP2, the intracellular cAMP amount was used as an indicator, so as to investigate the action of the test compound.
Construction of Rat EP1, EP2, or EP3 Receptor Expressing Vector: A rat EP1 receptor gene (GenBank accession No.: D88751.1), a rat EP2 receptor gene (GenBank accession No.: NM_031088.1), or a rat EP3 receptor gene (GenBank accession No.: NM_012704.1) were inserted respectively into an expression vector pcDNA3.1-V5-His-TOPO (Invitrogen Inc.).
Construction of Cell Stably Expressing Rat EP1, EP2, or EP3 Receptor: […]
The amount of cAMP contained in the cell lysate was measured with a cAMP HiRange kit in the same manner as in Test Example 4. The ratio of the cAMP amount when the test compound was treated was calculated, by taking the cAMP amount with addition of PGE2 having a final concentration of 100 nmol/L as 100% and taking the cAMP amount without addition of PGE2 as 0%.

T1 sequence (Q62928 whole entry): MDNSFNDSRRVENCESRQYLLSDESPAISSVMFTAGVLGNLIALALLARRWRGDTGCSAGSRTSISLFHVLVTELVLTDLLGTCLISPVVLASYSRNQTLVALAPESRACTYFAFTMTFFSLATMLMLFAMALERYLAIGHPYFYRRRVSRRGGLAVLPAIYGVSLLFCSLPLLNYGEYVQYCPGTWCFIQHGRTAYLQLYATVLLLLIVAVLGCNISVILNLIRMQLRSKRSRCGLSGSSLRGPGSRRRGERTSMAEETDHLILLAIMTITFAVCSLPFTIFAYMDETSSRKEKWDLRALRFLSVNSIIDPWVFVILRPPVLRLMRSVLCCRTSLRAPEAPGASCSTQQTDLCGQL

IC50: > 10 µM
Compound: Cc1nn(Cc2cc3ccccc3cn2)c(C(=O)N[C@@H](C)c2ccc(C(=O)O)cc2)c1Br [Compound A, 4-[(1S)-1-({[4-bromo-1-(isoquinolin-3-ylmethyl)-3-methyl-1H-pyrazol-5-yl]carbonyl}amino)ethyl]benzoic acid]
